Test results from article PMC5218480 (PLoS ONE, 2017).

Tested on: MV-4-11 cells
Test: Gene expression microarray analysis (Affymetrix PrimeView) and GSEA
Assay type: cell-based, human
Parameters: RFU PODN (11730768_x_at) / Fold change /veh PODN (11730768_x_at) / RFU LINC00158 (11744669_a_at) / Fold change /veh LINC00158 (11744669_a_at) / RFU DUSP10 (11751237_a_at) / Fold change /veh DUSP10 (11751237_a_at) / RFU ID3 (11757404_x_at) / Fold change /veh ID3 (11757404_x_at) / RFU PLEKHG5 (11737974_s_at) / Fold change /veh PLEKHG5 (11737974_s_at) / RFU LRRC4B (11730491_at) / Fold change /veh LRRC4B (11730491_at) / RFU GIMAP4 (11747438_a_at) / Fold change /veh GIMAP4 (11747438_a_at) / RFU KRT8 (11758183_x_at) / Fold change /veh KRT8 (11758183_x_at) / RFU CNN1 (11734310_a_at) / Fold change /veh CNN1 (11734310_a_at) / RFU VPS37D (11726825_at) / Fold change /veh VPS37D (11726825_at) / RFU C10orf10 (11716522_x_at) / Fold change /veh C10orf10 (11716522_x_at) / RFU KIR2DL2 /// KIR2DL4 /// KIR2DL5A /// KIR2DL5B /// KIR2DS1 /// KIR2DS2 /// KIR2DS3 /// KIR2DS4 /// KIR3DL3 /// KIR3DL3 /// KIR3DS1 (11738374_at) / Fold change /veh KIR2DL2 /// KIR2DL4 /// KIR2DL5A /// KIR2DL5B /// KIR2DS1 /// KIR2DS2 /// KIR2DS3 /// KIR2DS4 /// KIR3DL3 /// KIR3DL3 /// KIR3DS1 (11738374_at) / RFU C1QL1 (11718748_at) / Fold change /veh C1QL1 (11718748_at) / RFU TMPRSS4 (11747572_a_at) / Fold change /veh TMPRSS4 (11747572_a_at) / RFU HAMP (11756126_x_at) / Fold change /veh HAMP (11756126_x_at) / RFU RNFT2 (11725882_a_at) / Fold change /veh RNFT2 (11725882_a_at) / RFU NR4A2 (11747474_a_at) / Fold change /veh NR4A2 (11747474_a_at) / RFU ABCC12 (11746883_a_at) / Fold change /veh ABCC12 (11746883_a_at) / RFU TMEM136 (11760407_x_at) / Fold change /veh TMEM136 (11760407_x_at) / RFU CLDN22 /// WWC2 (11732394_at) / Fold change /veh CLDN22 /// WWC2 (11732394_at) / RFU HLA-DPB1 (11760878_x_at) / Fold change /veh HLA-DPB1 (11760878_x_at) / RFU SPINT1 (11716480_a_at) / Fold change /veh SPINT1 (11716480_a_at) / RFU GAP43 (11754022_s_at) / Fold change /veh GAP43 (11754022_s_at) / RFU A4GNT (11735810_at) / Fold change /veh A4GNT (11735810_at) / RFU PRB3 (11715151_x_at) / Fold change /veh PRB3 (11715151_x_at) / RFU TUBB4B (11761932_at) / Fold change /veh TUBB4B (11761932_at) / RFU CAPN14 (11732068_a_at) / Fold change /veh CAPN14 (11732068_a_at) / RFU TMCC2 (11721928_a_at) / Fold change /veh TMCC2 (11721928_a_at) / RFU IRGQ (11745062_a_at) / Fold change /veh IRGQ (11745062_a_at) / RFU FAM174B (11720279_a_at) / Fold change /veh FAM174B (11720279_a_at) / RFU TMPRSS4 (11748680_a_at) / Fold change /veh TMPRSS4 (11748680_a_at) / RFU FAM212B (11763350_a_at) / Fold change /veh FAM212B (11763350_a_at) / RFU PLEKHG5 (11743358_a_at) / Fold change /veh PLEKHG5 (11743358_a_at) / RFU ZSCAN30 (11745921_a_at) / Fold change /veh ZSCAN30 (11745921_a_at) / RFU CMKLR1 (11741424_a_at) / Fold change /veh CMKLR1 (11741424_a_at) / RFU LOC101060620 /// MAPK8IP1 (11723275_at) / Fold change /veh LOC101060620 /// MAPK8IP1 (11723275_at) / RFU SPTSSB (11747773_x_at) / Fold change /veh SPTSSB (11747773_x_at) / RFU PRSS12 (11739890_at) / Fold change /veh PRSS12 (11739890_at) / RFU BIN1 (11741810_x_at) / Fold change /veh BIN1 (11741810_x_at) / RFU WNT11 (11732464_a_at) / Fold change /veh WNT11 (11732464_a_at) / RFU C10orf10 (11716521_a_at) / Fold change /veh C10orf10 (11716521_a_at) / RFU C5orf56 (11738089_at) / Fold change /veh C5orf56 (11738089_at) / RFU CYB561 (11721691_x_at) / Fold change /veh CYB561 (11721691_x_at) / RFU ANKRD19P (11752326_a_at) / Fold change /veh ANKRD19P (11752326_a_at) / RFU OR2T12 /// OR2T33 /// OR2T8 (11738714_s_at) / Fold change /veh OR2T12 /// OR2T33 /// OR2T8 (11738714_s_at) / RFU VCAN (11748164_a_at) / Fold change /veh VCAN (11748164_a_at) / RFU JSRP1 (11732532_at) / Fold change /veh JSRP1 (11732532_at) / RFU KRTAP10-11 (11738290_x_at) / Fold change /veh KRTAP10-11 (11738290_x_at) / RFU MYO3A (11730013_a_at) / Fold change /veh MYO3A (11730013_a_at) / RFU EBF3 (11725865_a_at) / Fold change /veh EBF3 (11725865_a_at) / RFU CAMK2N1 (11719241_x_at) / Fold change /veh CAMK2N1 (11719241_x_at) / RFU C5orf56 (11738088_a_at) / Fold change /veh C5orf56 (11738088_a_at) / RFU OLFML3 (11715873_a_at) / Fold change /veh OLFML3 (11715873_a_at) / RFU LOC100653217 /// NTM (11731650_a_at) / Fold change /veh LOC100653217 /// NTM (11731650_a_at) / RFU MAPK11 (11762145_a_at) / Fold change /veh MAPK11 (11762145_a_at) / RFU FIZ1 (11724087_x_at) / Fold change /veh FIZ1 (11724087_x_at) / RFU OASL (11726364_x_at) / Fold change /veh OASL (11726364_x_at) / RFU SOX15 (11748057_x_at) / Fold change /veh SOX15 (11748057_x_at) / RFU CD79A (11719716_a_at) / Fold change /veh CD79A (11719716_a_at) / RFU HIST1H1D (11736915_at) / Fold change /veh HIST1H1D (11736915_at) / RFU CASKIN2 (11723855_a_at) / Fold change /veh CASKIN2 (11723855_a_at) / RFU LOC730098 (11760151_x_at) / Fold change /veh LOC730098 (11760151_x_at) / RFU OR4N2 (11742367_at) / Fold change /veh OR4N2 (11742367_at) / RFU PRRT2 (11749266_a_at) / Fold change /veh PRRT2 (11749266_a_at) / RFU SNX32 (11753110_a_at) / Fold change /veh SNX32 (11753110_a_at) / RFU CDHR5 (11726645_a_at) / Fold change /veh CDHR5 (11726645_a_at) / RFU RCAN1 (11760418_a_at) / Fold change /veh RCAN1 (11760418_a_at) / RFU FAM167A (11723789_a_at) / Fold change /veh FAM167A (11723789_a_at) / RFU FAM26E (11764081_at) / Fold change /veh FAM26E (11764081_at) / RFU ISYNA1 (11749810_s_at) / Fold change /veh ISYNA1 (11749810_s_at) / RFU ACY1 (11761880_at) / Fold change /veh ACY1 (11761880_at) / RFU 11764098_at / Fold change /veh 11764098_at / RFU SAMD14 (11745864_x_at) / Fold change /veh SAMD14 (11745864_x_at) / RFU NPB (11741838_a_at) / Fold change /veh NPB (11741838_a_at) / RFU TMPRSS6 (11731388_a_at) / Fold change /veh TMPRSS6 (11731388_a_at) / RFU KRTAP10-2 (11738614_at) / Fold change /veh KRTAP10-2 (11738614_at) / RFU ARHGAP8 /// PRR5-ARHGAP8 (11727945_x_at) / Fold change /veh ARHGAP8 /// PRR5-ARHGAP8 (11727945_x_at) / RFU KRTAP5-7 /// NADSYN1 (11734609_at) / Fold change /veh KRTAP5-7 /// NADSYN1 (11734609_at) / RFU RASL12 (11751679_a_at) / Fold change /veh RASL12 (11751679_a_at) / RFU CDKN2B (11736163_a_at) / Fold change /veh CDKN2B (11736163_a_at) / RFU PRF1 (11729649_at) / Fold change /veh PRF1 (11729649_at) / RFU, ZNF638 /// ZNF638-IT1 / Fold change vs veh, ZNF638 /// ZNF638-IT1 / RFU, PANK3 / Fold change vs veh, PANK3 / RFU, SH3YL1 / Fold change vs veh, SH3YL1 / RFU, ZEB2 / Fold change vs veh, ZEB2 / RFU, NRIP1 / Fold change vs veh, NRIP1 / RFU, PTTG1IP / Fold change vs veh, PTTG1IP / RFU, CAPN2 / Fold change vs veh, CAPN2 / RFU, MED14 / Fold change vs veh, MED14 / RFU, SNORA58 / Fold change vs veh, SNORA58 / RFU, C1orf63 / Fold change vs veh, C1orf63 / RFU, LRRFIP1 / Fold change vs veh, LRRFIP1 / RFU, NDUFAF7 / Fold change vs veh, NDUFAF7 / RFU, SLC12A2 / Fold change vs veh, SLC12A2 / RFU, IBTK / Fold change vs veh, IBTK / RFU, ESF1 / Fold change vs veh, ESF1 / Fold change vs veh, TMEM50B / RFU, TAOK1 / Fold change vs veh, TAOK1 / RFU, ACBD3 / Fold change vs veh, ACBD3 / RFU, TMA16 / Fold change vs veh, TMA16 / RFU, RWDD3 / Fold change vs veh, RWDD3 / RFU, BCAT1 / Fold change vs veh, BCAT1 / RFU, EDEM3 / Fold change vs veh, EDEM3 / RFU, TMEM33 / Fold change vs veh, TMEM33 / RFU, WDR75 / Fold change vs veh, WDR75 / RFU, AHCTF1 / Fold change vs veh, AHCTF1 / RFU, TFRC / Fold change vs veh, TFRC / RFU, ZDHHC17 / Fold change vs veh, ZDHHC17 / RFU, NOM1 / Fold change vs veh, NOM1 / RFU, ARL8B / Fold change vs veh, ARL8B / RFU, ZBTB11 / Fold change vs veh, ZBTB11 / RFU, TAMM41 / Fold change vs veh, TAMM41 / RFU, KIAA1704 /// LOC100996395 / Fold change vs veh, KIAA1704 /// LOC100996395 / RFU, ING1 / Fold change vs veh, ING1 / RFU, TRMT61B / Fold change vs veh, TRMT61B / RFU, FUBP3 / Fold change vs veh, FUBP3 / RFU, TP53 / Fold change vs veh, TP53 / RFU, TNKS2 / Fold change vs veh, TNKS2 / RFU, ZFP14 / Fold change vs veh, ZFP14 / RFU, ACTR2 / Fold change vs veh, ACTR2 / RFU, PPP3R1 / Fold change vs veh, PPP3R1 / RFU, PIK3R1 / Fold change vs veh, PIK3R1 / RFU, HNRNPA1 / Fold change vs veh, HNRNPA1 / RFU, RNF170 / Fold change vs veh, RNF170 / RFU, ZNF28 / Fold change vs veh, ZNF28 / RFU, RNGTT / Fold change vs veh, RNGTT / RFU, OGT / Fold change vs veh, OGT / RFU, BRD1 / Fold change vs veh, BRD1 / RFU, MARS / Fold change vs veh, MARS / RFU, ZNF655 / Fold change vs veh, ZNF655 / RFU, FAHD1 / Fold change vs veh, FAHD1 / RFU, BDP1 / Fold change vs veh, BDP1 / RFU, LRRCC1 / Fold change vs veh, LRRCC1 / RFU, ARID1A / Fold change vs veh, ARID1A / RFU, ZNF146 / Fold change vs veh, ZNF146 / RFU, ZNF330 / Fold change vs veh, ZNF330 / RFU, GPN3 / Fold change vs veh, GPN3 / RFU, C9orf123 / Fold change vs veh, C9orf123 / RFU, N4BP2L2 / Fold change vs veh, N4BP2L2 / RFU, ARFIP1 / Fold change vs veh, ARFIP1 / RFU, FAM179B / Fold change vs veh, FAM179B / RFU, BCL10 / Fold change vs veh, BCL10 / RFU, UHRF1BP1L / Fold change vs veh, UHRF1BP1L / RFU, BET1 / Fold change vs veh, BET1 / RFU, CNOT2 / Fold change vs veh, CNOT2 / RFU, ZNF268 / Fold change vs veh, ZNF268 / Fold change vs veh, ZNF507 / RFU, DGCR2 / Fold change vs veh, DGCR2 / RFU, WDSUB1 / Fold change vs veh, WDSUB1 / Fold change vs veh, HSP90B1 /// MIR3652 / RFU, ADSS / Fold change vs veh, ADSS / RFU, GK / Fold change vs veh, GK / RFU, ZNF148 / Fold change vs veh, ZNF148 / RFU, TAF9 / Fold change vs veh, TAF9 / RFU, SLC1A5 / Fold change vs veh, SLC1A5 / RFU, SLMO2 / Fold change vs veh, SLMO2 / RFU, ABCC4 / Fold change vs veh, ABCC4 / RFU, LOC101060439 /// RAP1B / Fold change vs veh, LOC101060439 /// RAP1B / RFU, RFX7 / Fold change vs veh, RFX7 / RFU, GTPBP10 / Fold change vs veh, GTPBP10 / RFU, CNEP1R1 / Fold change vs veh, CNEP1R1 / RFU, BIVM-ERCC5 /// ERCC5 / Fold change vs veh, BIVM-ERCC5 /// ERCC5 / RFU, ILF3 / Fold change vs veh, ILF3 / RFU 11762660_at / Fold change /veh 11762660_at / RFU VCAN (11757783_s_at) / Fold change /veh VCAN (11757783_s_at) / RFU DDX43 (11728927_at) / Fold change /veh DDX43 (11728927_at) / RFU KRT8 (11758188_x_at) / Fold change /veh KRT8 (11758188_x_at) / RFU NKD1 (11759106_at) / Fold change /veh NKD1 (11759106_at) / RFU SRD5A1 (11742802_a_at) / Fold change /veh SRD5A1 (11742802_a_at) / RFU TPSAB1 /// TPSB2 (11721975_s_at) / Fold change /veh TPSAB1 /// TPSB2 (11721975_s_at) / RFU GSTM3 (11746129_a_at) / Fold change /veh GSTM3 (11746129_a_at) / RFU IL23R (11737362_x_at) / Fold change /veh IL23R (11737362_x_at) / RFU TMEM51 (11727254_a_at) / Fold change /veh TMEM51 (11727254_a_at) / RFU PIWIL2 (11732686_x_at) / Fold change /veh PIWIL2 (11732686_x_at) / RFU ORM1 (11744905_x_at) / Fold change /veh ORM1 (11744905_x_at) / RFU CCDC152 (11743942_at) / Fold change /veh CCDC152 (11743942_at) / RFU ECM1 (11717891_a_at) / Fold change /veh ECM1 (11717891_a_at) / RFU IL23R (11748794_a_at) / Fold change /veh IL23R (11748794_a_at) / RFU TNFAIP8L3 (11732012_x_at) / Fold change /veh TNFAIP8L3 (11732012_x_at) / RFU MBOAT4 (11741988_at) / Fold change /veh MBOAT4 (11741988_at) / RFU 11764193_at / Fold change /veh 11764193_at / RFU TMEM53 (11763286_at) / Fold change /veh TMEM53 (11763286_at) / RFU MAGEB2 (11727129_at) / Fold change /veh MAGEB2 (11727129_at) / RFU TMEM200A (11744735_a_at) / Fold change /veh TMEM200A (11744735_a_at) / RFU CCDC152 (11751479_a_at) / Fold change /veh CCDC152 (11751479_a_at) / RFU FAM211A (11726209_a_at) / Fold change /veh FAM211A (11726209_a_at) / RFU RGS16 (11746705_a_at) / Fold change /veh RGS16 (11746705_a_at) / RFU VCAN (11755009_s_at) / Fold change /veh VCAN (11755009_s_at) / RFU RHOB (11743442_s_at) / Fold change /veh RHOB (11743442_s_at) / RFU RGS16 (11720943_a_at) / Fold change /veh RGS16 (11720943_a_at) / RFU RGS16 (11720944_at) / Fold change /veh RGS16 (11720944_at) / RFU, VPS4B / Fold change vs veh, VPS4B / RFU, CREB1 / Fold change vs veh, CREB1 / RFU, DNAJC13 / Fold change vs veh, DNAJC13 / RFU, GNAQ / Fold change vs veh, GNAQ / RFU, CDK5R1 / Fold change vs veh, CDK5R1 / RFU, ZRANB3 / Fold change vs veh, ZRANB3 / RFU, CUL4A / Fold change vs veh, CUL4A / RFU, CCNY / Fold change vs veh, CCNY / RFU, UFL1 / Fold change vs veh, UFL1 / RFU, COG3 / Fold change vs veh, COG3 / RFU, DIAPH2 / Fold change vs veh, DIAPH2 / RFU, SKA2 / Fold change vs veh, SKA2 / RFU, AFF3 / Fold change vs veh, AFF3 / RFU, LMF1 / Fold change vs veh, LMF1 / RFU, IPO11 / Fold change vs veh, IPO11 / RFU, DFFB / Fold change vs veh, DFFB / RFU, FOXP1 / Fold change vs veh, FOXP1 / RFU, CARD8 / Fold change vs veh, CARD8 / RFU, STRN3 / Fold change vs veh, STRN3 / RFU, ADK / Fold change vs veh, ADK / RFU, RASSF2 / Fold change vs veh, RASSF2 / RFU, WIPF1 / Fold change vs veh, WIPF1 / RFU, LARP1B / Fold change vs veh, LARP1B / RFU, RASA1 / Fold change vs veh, RASA1 / RFU, RB1 / Fold change vs veh, RB1 / RFU, PPFIA1 / Fold change vs veh, PPFIA1 / RFU, MAT2A / Fold change vs veh, MAT2A / RFU, CCT5 / Fold change vs veh, CCT5 / RFU, WDR92 / Fold change vs veh, WDR92 / RFU, CUX1 / Fold change vs veh, CUX1 / RFU, TTC7A / Fold change vs veh, TTC7A / RFU, TMEM135 / Fold change vs veh, TMEM135 / RFU, DEPTOR / Fold change vs veh, DEPTOR / RFU, CPM / Fold change vs veh, CPM / RFU, DNAJB6 / Fold change vs veh, DNAJB6 / RFU, CACNA2D3 / Fold change vs veh, CACNA2D3 / RFU, DTX4 / Fold change vs veh, DTX4 / RFU, TFCP2 / Fold change vs veh, TFCP2 / RFU, GMCL1 /// GMCL1P1 / Fold change vs veh, GMCL1 /// GMCL1P1 / RFU, AEBP2 / Fold change vs veh, AEBP2 / RFU, SNHG1 /// SNORD22 /// SNORD25 /// SNORD26 /// SNORD27 /// SNORD28 /// SNORD29 /// SNORD31 / Fold change vs veh, SNHG1 /// SNORD22 /// SNORD25 /// SNORD26 /// SNORD27 /// SNORD28 /// SNORD29 /// SNORD31 / Fold change (Aza/veh), C12orf56 (ProbeSet 11735607_a_at) / Fold change (ACY-1035/veh), C12orf56 (ProbeSet 11735607_a_at) / Fold change (Aza/veh), FGFR1OP (ProbeSet 11751329_s_at) / Fold change (ACY-1035/veh), FGFR1OP (ProbeSet 11751329_s_at) / Fold change (Aza/veh), VPS36 (ProbeSet 11739960_a_at) / Fold change (ACY-1035/veh), VPS36 (ProbeSet 11739960_a_at) / RFU SYPL1 (11715823_x_at) / Fold change /veh SYPL1 (11715823_x_at) / RFU IGFBP7 (11715501_s_at) / Fold change /veh IGFBP7 (11715501_s_at) / RFU REEP3 (11722064_at) / Fold change /veh REEP3 (11722064_at) / RFU IGLL1 (11728026_x_at) / Fold change /veh IGLL1 (11728026_x_at): dose or concentration left out as unconfirmed
Settings: MV-4-11 cells, 48 hours

Nc1ncn([C@@H]2O[C@H](CO)[C@@H](O)[C@H]2O)c(=O)n1 [azacitidine]
RFU OR4N2 (11742367_at): 68.76 RFU
